Data set [1] is described as follows: Assay (IV) determination of solubility. It counts as physicochemical. How it is done:
Assay (IV)—Determination of Solubility
The mimylin peptide was dissolved in water at ˜500 nmol/ml and mixed 1:1 with a series of buffers (100 mM glycylglycine pH 3.0, 100 mM glycylglycine pH 4.0, 100 mM glycylglycine pH 5.0, 100 mM bistrispropane pH 6.0, 100 mM bistrispropane pH 6.5, 100 mM bistrispropane pH 7.0, 100 mM bistrispropane pH 7.5, 100 mM bistrispropane pH 8.0).

A short description of data set [2]: Assay (IX) pK, T½ in mini-pig. It counts as in vivo, Göttingen mini-pigs. The settings on record: i.v. Here is the method: Assay (IX)—pK—Determination of T½ in Mini-Pig
Pharmacokinetic (PK) studies in Göttingen mini-pigs were conducted in order to determine the T½ of the mimylin compound according to the Examples as indicated after i.v. administration.
T½ values of the amylin analogues of the invention is determined by pharmacokinetic studies in female Göttingen mini-pigs from Ellegaard Göttingen Minipigs ApS and the principles of laboratory animal care are followed.
An acclimatisation period of approximately 6-10 days was allowed before the animals entered the study. At start of the acclimatisation period the mini-pigs were about 5 to 12 months old and in the weight range of 15-35 kg. The mini-pigs had two central venous catheters inserted which were used for blood sampling.
The studies were conducted in an animal room which was illuminated to give a cycle of approximately 12 hours light and 12 hours darkness. The animals were housed individually. The animals had free access to domestic quality drinking water during the study, and no food restrictions applied for PK studies. The animals were weighed on arrival and on the days of dosing.
In the present studies the test substances were administered intravenously in approximately 5 nmol/kg dose. The animals received a single intravenous injection in one central venous catheter and blood sampling was performed from the other catheter, where possible. Each test substance was given to typically three but in some cases two or four animals.
A full plasma concentration-time profile, employing 12-16 sampling points, was obtained from each animal. In example blood samples were collected according to the following schedule:
After Intravenous Administration:
Pre-dose (0), 0.5, 1, 2, 4, 6, 8, 12, 24, 48, 72, 96, 120, 168 and 240 hours after injection. In some cases also additional blood samples up to 288 hours post injection were taken.
At each sampling time, 0.5 to 2 ml of blood was drawn from each animal. The blood samples were taken via the central venous catheter.
The 0.8 mL blood samples were collected into EDTA test tubes (8 mM EDTA). Blood samples were kept on ice for max 20 min. before centrifugation. Plasma was separated using centrifugation (i.e. at 4° C., 10 min., 2000G) and was immediately transferred to Micronic tubes on dry ice. Approximately 200 μl plasma was transferred to each Micronic tube. The plasma was stored at −20° C. until assayed. The plasma samples were assayed for the content of compound using LCMS.
The plasma concentration-time profiles were analysed by a non-compartmental pharmacokinetic analysis (NCA) using Phoenix WinNonlin 6.3 (Pharsight Inc., Mountain View, Calif., USA). NCA was performed using the individual plasma concentration-time profiles from each animal. T½ is the terminal half-life=In2/λz and was determined from λz, the first order rate constant associated with the terminal (log-linear) portion of the curve, estimated by linear regression of time vs. log concentration.
MS-Method for Amylin and Mimylin Quantification
40 μl plasma is diluted with 120 μl 66.67% EtOH+1% HCOOH and mixed. Centrifuged for 20 min. at 13000 rpm, 4° C. The supernatant is analyzed by an LC-MS method on a Sciex API 3000 and quantitated with a standard made up in plasma

Numbered stars: 1 amine (or outer) side, 2 acyl side, 3 side chain; on linkers, the order of the positions; unused ones are H or OH. Peptide text beside a SMILES is read from it. * marks the point of attachment. C20 diacid = O=C(O)CCCCCCCCCCCCCCCCCCC(=O)*; C18 diacid = O=C(O)CCCCCCCCCCCCCCCCC(=O)*; γGlu = O=C(O)[C@H](CCC(=O)[*:2])N[*:1]; C12 diacid = O=C(O)CCCCCCCCCCC(=O)*

From patent US9593149B2, “Amylin and calcitonin receptor agonist” (Novo Nordisk A/S, priority 2014, dated 2017) come the findings set out here.

The solubility is the concentration that dissolves in the medium under given conditions. A lower solubility goes with a poorly soluble substance.

Take `CC(C)C[C@H](NC(=O)[C@H](C)NC(=O)[C@H](C)NC(=O)[C@@H](NC(=O)[C@H](CO)NC(=O)[C@H](CC(C)C)NC(=O)[C@H](CCC(=O)O)NC(=O)[C@H](CO)NC(=O)[C@H](C)NC(=O)CC[C@H](NC(=O)CCCCCCCCCCCCCCCCCCC(=O)O)C(=O)O)[C@@H](C)O)C(=O)NCC(=O)N[C@@H](CCCNC(=N)N)C(=O)N[C@@H](CC(C)C)C(=O)N[C@@H](CO)C(=O)N[C@@H](C)C(=O)N[C@@H](CCC(=O)O)C(=O)N[C@@H](CC(C)C)C(=O)N[C@@H](Cc1cnc[nH]1)C(=O)N[C@@H](CCC(=O)O)C(=O)N[C@@H](CC(C)C)C(=O)N[C@@H](C)C(=O)N[C@H](C(=O)N[C@@H](CC(C)C)C(=O)N1CCC[C@H]1C(=O)N[C@@H](CCCNC(=N)N)C(=O)N[C@H](C(=O)N[C@@H](CCC(=O)O)C(=O)N[C@H](C(=O)NCC(=O)N[C@@H](CO)C(=O)NCC(=O)N[C@@H](CO)C(=O)N1CCC[C@H]1C(N)=O)[C@@H](C)O)[C@@H](C)O)[C@@H](C)O` [Ex. #40, [N-terminal(C20 diacid-gGlu), des1, 30S, 31G]mimylin] ({C20 diacid-γGlu}-ASELSTAALGRLSAELHELATLPRTETGSGSP-NH2): the Solubility entry in data set [1] (pH 3.0), in data set [1] (pH 4.0), in data set [1] (pH 5.0), in data set [1] (pH 6.0), in data set [1] (pH 6.5) and in data set [1] (pH 7.0) was “≧200 μM” throughout. Moreover, the Solubility entry in data set [1] (pH 7.5) and in data set [1] (pH 8.0) was “≧200 μM” throughout. Also, the “PK mini pig iv T½” value in data set [2] is 171 h.

In data set [1] (bistrispropane buffer, pH 6.5), `CC(C)C[C@H](NC(=O)[C@H](C)NC(=O)[C@H](C)NC(=O)[C@@H](NC(=O)[C@H](CO)NC(=O)[C@H](CC(C)C)NC(=O)[C@H](CCC(=O)O)NC(=O)[C@H](CO)NC(=O)[C@H](C)NC(=O)[C@H](CCC(=O)O)NC(=O)CCCCCCCCCCC(=O)O)[C@@H](C)O)C(=O)NCC(=O)N[C@@H](CCCNC(=N)N)C(=O)N[C@@H](CC(C)C)C(=O)N[C@@H](CO)C(=O)N[C@@H](C)C(=O)N[C@@H](CCC(=O)O)C(=O)N[C@@H](CC(C)C)C(=O)N[C@@H](Cc1cnc[nH]1)C(=O)N[C@@H](CCC(=O)O)C(=O)N[C@@H](CC(C)C)C(=O)N[C@@H](C)C(=O)N[C@H](C(=O)N[C@@H](CC(C)C)C(=O)N1CCC[C@H]1C(=O)N[C@@H](CCCNC(=N)N)C(=O)N[C@H](C(=O)N[C@@H](CCC(=O)O)C(=O)N[C@H](C(=O)NCC(=O)N1CCC[C@H]1C(=O)N[C@@H](CCC(=O)O)C(=O)N[C@@H](CO)C(=O)N1CCC[C@H]1C(N)=O)[C@@H](C)O)[C@@H](C)O)[C@@H](C)O` [compound 6, [N-terminal(C12 diacid)]mimylin] ({C12 diacid}-EASELSTAALGRLSAELHELATLPRTETGPESP-NH2) displayed a solubility at 18 h not below 200 µM. Moreover, the Solubility result in data set [1] (pH 3.0), in data set [1] (pH 4.0), in data set [1] (pH 5.0), in data set [1] (pH 6.0), in data set [1] (pH 7.0) and in data set [1] (pH 7.5) was “≧200 μM” each time. The Solubility result in data set [1] (pH 8.0) is reported as “≧200 μM”. For the same molecule, in data set [2], the “PK mini pig iv T½” value amounted to 1 h.

Turning to `CC(C)C[C@H](NC(=O)[C@H](CCC(=O)O)NC(=O)[C@H](Cc1cnc[nH]1)NC(=O)[C@H](CC(C)C)NC(=O)[C@H](CCC(=O)O)NC(=O)[C@H](C)NC(=O)[C@H](CO)NC(=O)[C@H](CC(C)C)NC(=O)[C@H](CCCNC(=N)N)NC(=O)CNC(=O)[C@H](CC(C)C)NC(=O)[C@@H](NC(=O)[C@H](C)NC(=O)[C@@H](NC(=O)[C@H](CO)NC(=O)[C@H](CC(C)C)NC(=O)[C@H](CCC(=O)O)NC(=O)[C@H](CO)NC(=O)[C@H](C)NC(=O)[C@H](CCC(=O)O)NC(=O)CCCCCCCCCCCCCCCCC(=O)O)[C@@H](C)O)C(C)C)C(=O)N[C@@H](C)C(=O)N[C@H](C(=O)N[C@@H](CC(C)C)C(=O)N1CCC[C@H]1C(=O)N[C@@H](CCCNC(=N)N)C(=O)N[C@H](C(=O)N[C@@H](CCC(=O)O)C(=O)N[C@H](C(=O)NCC(=O)N1CCC[C@H]1C(=O)N[C@@H](CCC(=O)O)C(=O)N[C@@H](CO)C(=O)N1CCC[C@H]1C(N)=O)[C@@H](C)O)[C@@H](C)O)[C@@H](C)O` [compound 9, [N-terminal(C18 diacid), 9V]mimylin] ({C18 diacid}-EASELSTAVLGRLSAELHELATLPRTETGPESP-NH2), the Solubility result in data set [1] (pH 3.0), in data set [1] (pH 4.0), in data set [1] (pH 5.0), in data set [1] (pH 6.0), in data set [1] (pH 6.5) and in data set [1] (pH 7.0) was “≧200 μM” each time. Also, the Solubility result in data set [1] (pH 7.5) and in data set [1] (pH 8.0) was “≧200 μM” in each case. Moreover, in data set [2], the “PK mini pig iv T½” value is 90 h.

Regarding `CC(C)C[C@H](NC(=O)[C@H](C)NC(=O)[C@H](C)NC(=O)[C@@H](NC(=O)[C@H](CO)NC(=O)[C@H](CC(C)C)NC(=O)[C@H](CCC(=O)O)NC(=O)[C@H](CO)NC(=O)[C@H](C)NC(=O)[C@H](CCC(=O)O)NC(=O)CCCCCCCCCCCCCCCCC(=O)O)[C@@H](C)O)C(=O)NCC(=O)N[C@@H](CCCNC(=N)N)C(=O)N[C@@H](CC(C)C)C(=O)N[C@@H](CO)C(=O)N[C@@H](C)C(=O)N[C@@H](CCC(=O)O)C(=O)N[C@@H](CC(C)C)C(=O)N[C@@H](C)C(=O)N[C@@H](CCC(=O)O)C(=O)N[C@@H](CC(C)C)C(=O)N[C@@H](C)C(=O)N[C@H](C(=O)N[C@@H](CC(C)C)C(=O)N1CCC[C@H]1C(=O)N[C@@H](CCCNC(=N)N)C(=O)N[C@H](C(=O)N[C@@H](CCC(=O)O)C(=O)N[C@H](C(=O)NCC(=O)N1CCC[C@H]1C(=O)N[C@@H](CCC(=O)O)C(=O)N[C@@H](CO)C(=O)N1CCC[C@H]1C(N)=O)[C@@H](C)O)[C@@H](C)O)[C@@H](C)O` [compound 13, [N-terminal(C18 diacid), 18A]mimylin] ({C18 diacid}-EASELSTAALGRLSAELAELATLPRTETGPESP-NH2), the Solubility result in data set [1] (pH 3.0), in data set [1] (pH 4.0), in data set [1] (pH 5.0), in data set [1] (pH 6.0), in data set [1] (pH 6.5) and in data set [1] (pH 7.0) was “≧200 μM” each time. For the same molecule, the Solubility entry in data set [1] (pH 7.5) and in data set [1] (pH 8.0) was “≧200 μM” each time. Moreover, the “PK mini pig iv T½” value in data set [2] is reported as 86 h.

Consider `CC(C)C[C@H](NC(=O)[C@H](C)NC(=O)[C@H](C)NC(=O)[C@@H](NC(=O)[C@H](CO)NC(=O)[C@H](CC(C)C)NC(=O)[C@H](CCC(=O)O)NC(=O)[C@H](CO)NC(=O)[C@H](C)NC(=O)[C@H](CCC(=O)O)NC(=O)CCCCCCCCCCCCCCCCC(=O)O)[C@@H](C)O)C(=O)NCC(=O)N[C@@H](CCCNC(=N)N)C(=O)N[C@@H](CC(C)C)C(=O)N[C@@H](CO)C(=O)N[C@@H](C)C(=O)N[C@@H](CCC(=O)O)C(=O)N[C@@H](CC(C)C)C(=O)N[C@@H](Cc1cnc[nH]1)C(=O)N[C@@H](CCC(=O)O)C(=O)N[C@@H](CC(C)C)C(=O)N[C@@H](C)C(=O)N[C@H](C(=O)N[C@@H](CC(C)C)C(=O)N1CCC[C@H]1C(=O)N[C@@H](CCCNC(=N)N)C(=O)N[C@H](C(=O)N[C@@H](CCC(=O)O)C(=O)N[C@H](C(=O)NCC(=O)N[C@@H](CO)C(=O)NCC(=O)N[C@@H](CO)C(=O)N1CCC[C@H]1C(N)=O)[C@@H](C)O)[C@@H](C)O)[C@@H](C)O` [compound 21, [N-terminal(C18 diacid), 30S, 31G]mimylin] ({C18 diacid}-EASELSTAALGRLSAELHELATLPRTETGSGSP-NH2), for which the Solubility entry in data set [1] (pH 3.0), in data set [1] (pH 4.0), in data set [1] (pH 5.0), in data set [1] (pH 6.0), in data set [1] (pH 6.5) and in data set [1] (pH 7.0) was “≧200 μM” throughout. Moreover, the Solubility result in data set [1] (pH 7.5) and in data set [1] (pH 8.0) was “≧200 μM” throughout. Moreover, in data set [2], the “PK mini pig iv T½” value is 118 h.
